Assay results published in US20100111908A1, “Induction of Renal Cells for Treatment of Kidney Disease” (priority 2008, published 2010).

Tests used:
CaR = target: T1, CaR (Homo sapiens, UniProt P41180); settings: activation of CaR; Olszak et al., 2000; cited from earlier work
T1 construct: host or cells: monocytes
T1 sequence (P41180 20-1078): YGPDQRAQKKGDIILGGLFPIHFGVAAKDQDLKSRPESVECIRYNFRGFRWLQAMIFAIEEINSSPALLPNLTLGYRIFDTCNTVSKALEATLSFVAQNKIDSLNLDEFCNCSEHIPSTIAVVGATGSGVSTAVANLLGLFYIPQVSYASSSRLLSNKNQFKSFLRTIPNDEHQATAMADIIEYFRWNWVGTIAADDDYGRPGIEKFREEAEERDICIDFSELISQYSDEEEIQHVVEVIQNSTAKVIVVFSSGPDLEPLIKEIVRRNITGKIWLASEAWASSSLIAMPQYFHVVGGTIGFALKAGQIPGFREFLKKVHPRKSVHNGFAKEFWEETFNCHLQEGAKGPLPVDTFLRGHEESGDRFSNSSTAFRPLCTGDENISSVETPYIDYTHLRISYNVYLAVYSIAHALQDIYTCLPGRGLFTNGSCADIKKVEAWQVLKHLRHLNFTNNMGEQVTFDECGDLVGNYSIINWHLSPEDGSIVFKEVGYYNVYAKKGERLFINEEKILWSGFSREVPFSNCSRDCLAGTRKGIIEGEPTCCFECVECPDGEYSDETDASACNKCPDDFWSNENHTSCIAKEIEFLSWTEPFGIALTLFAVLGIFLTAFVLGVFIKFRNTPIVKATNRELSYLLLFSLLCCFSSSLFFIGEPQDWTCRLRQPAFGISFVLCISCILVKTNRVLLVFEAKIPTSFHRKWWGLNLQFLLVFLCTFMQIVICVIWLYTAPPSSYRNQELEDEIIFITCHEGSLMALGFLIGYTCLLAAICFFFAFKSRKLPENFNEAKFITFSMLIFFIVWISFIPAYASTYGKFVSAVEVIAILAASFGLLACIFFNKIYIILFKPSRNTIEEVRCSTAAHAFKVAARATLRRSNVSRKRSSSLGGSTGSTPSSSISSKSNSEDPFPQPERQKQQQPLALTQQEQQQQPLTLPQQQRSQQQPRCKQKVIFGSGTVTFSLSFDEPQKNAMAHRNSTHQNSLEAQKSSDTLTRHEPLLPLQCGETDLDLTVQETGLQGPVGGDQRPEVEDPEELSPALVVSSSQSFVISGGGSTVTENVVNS

Lin− cells [1] = test: qRT-PCR of renal developmentally regulated genes in induced cells; type: cell-based, mouse; settings: TSA 15 nM, 6 h at 2nd stage vs vehicle, cells after 3rd stage
Method: Lin^− cells, which include lineage undifferentiated hematopoietic stem cells and progenitor cells, were isolated to 99.8% purity by FACS as described (Lin et al., 2003). Purified Lin^− cells were cultured sequentially in the presence of cytokines including IL-3, IL-6, and stem cell factor for 48 hr (1st stage); nephrogenic factors including retinoic acid, activin-A and BMP7 for 48 hr (2nd stage); and epithelial growth factors including EGF, IGF-1 and HGF for 72 hr (3rd stage). The total induction period is 1 week. Cytokine treatment is known to stimulate HSC to enter the cell cycle and the cells remain as hematopoietic cells after 48 hr in these culture conditions (Luskey et al., 1992; Reddy et al., 1997). The nephrogenic factors that were used can induce differentiation of mouse ES cells into renal epithelial cells as reported by Kim and Dressler (2005). Therefore, the inventors reasoned that nephrogenic factors might induce cycling Lin^− cells to select a renal cell fate. Further treatment of the cells with epithelial growth factors would promote epithelial growth. After the 1st stage, the cells remained small, round, and discrete (FIG. 5B, top left). After the 3rd stage, the cells increased in size and formed floating spheres (FIG. 5B, top right). The inventors took the precaution of only transferring cells in suspension to new culture dishes. The adherent cells that might represent bone marrow stromal/stem cells (MSC) were discarded. In some experiments, the inventors continued the cultures for an additional 7 days after the induction period (total 14 days) and observed an epithelial-like morphology in the cells (FIG. 5B, bottom). In the Examples section, the inventors will use the term “induced cells” to refer to cells after the 3rd stage culture (1 week induction).
(§1) The HDAC inhibitor TSA increases expression of renal developmentally regulated genes in induced cells. Although HDAC inhibitor trichostatin A (TSA) is a non-selective inhibitor of HDACs, TSA only alter 2-10% of the genes tested in multiple cell lines (Gray et al., 2004; Lee et al., 2006b; Mitsiades et al., 2004; Peart et al., 2005).

[2] = tested on: Lin− cells isolated from cre^ksp; R26R-EYFP mice; test: Flow cytometry of EYFP+ cells (renal cell conversion); type: cell-based, mouse; settings: TSA 15 nM, 6 h at 2nd stage
Method: To confirm renal conversion, Lin^− cells were isolated from bitransgenic creksp; R26R-EYFP mice that express EYFP specifically in the tubular epithelial cells of the kidney. […] However, after the 3rd stage, the induced cells expressed EYFP mRNA by RT-PCR analysis (FIG. 7B) and EYFP protein by immunostaining (FIG. 7C).
Treatment with TSA results in a 6-fold increase in EYFP^+ cells. Lin^− cells isolated from cre^ksp; R26R-EYFP mice were treated with vehicle or TSA (15 nM, 6 h) at the 2nd stage and EYFP^+ cells were quantified by flow cytometry analysis.

[3] = tested on: cadherin 6, cadherin 16, Lim1, Gdnf and Pax2 promoters; test: ChIP assay of histone acetylation on renal gene promoters; type: cell-based, mouse; settings: TSA 15 nM, 6 h at 2nd stage vs vehicle; ChIP after 3rd stage
Text: Increased histone acetylation accompanies cell conversion. To begin to understand the mechanisms of cell conversion and its associated nuclear reprogramming, the inventors examined the possibility of epigenetic regulation by histone modifications and chromatin remodeling. Chromatin modifications were detected using chromatin immunoprecipitation assays (ChIP assays) as described (Shang et al., 2000). Antibodies to acetylated histones H3 and H4 and tri-methylated histone H3 (lysine 9 or K9) were used for immunoprecipitation. […] In contrast, there was no change in tri-methylation of H3K9 on the cadherin 6 promoter (top panel). Acetylation of H3 but not H4 on the cadherin 16 promoter was increased after the 3rd stage. Tri-methylation of H3K9 on the cadherin 16 promoter seemed to increase after the 3rd stage.
as §1

Lin− cells [4] = test: Cell death in 2nd stage induction culture; type: cell-based, mouse; settings: about 15 nM, 6 hr in the 2nd stage
Text: Use of HDAC inhibitors may take into account the fact that high dose and/or long period of HDAC inhibition may induce widespread changes in gene expression. For example, treatment of metanephric organs cultures with HDAC inhibitor induces significant disturbance in the transcription network (Chen et al., 2007).

[5] = tested on: lymphoid cell line / multiple cell lines; settings: cited from earlier work
bone marrow stem cells = settings: Tayaramma et al., 2006; cited from earlier work
HDAC = settings: Vigushin et al., 2001, cited from earlier work

SMILES | monocyte migration in response to calcium (CaR) | Cdh 6 -Fold increase (Lin− cells [1]; *p<0.05, n=3) | Cdh 16 -Fold increase (Lin− cells [1]; *p<0.05, n=3) | Gdnf -Fold increase (Lin− cells [1]; *p<0.05, n=3) | Lim1 -Fold increase (Lin− cells [1]; *p<0.05, n=3) | Osr 1 -Fold increase (Lin− cells [1]; *p<0.05, n=3) | Pax2 -Fold increase (Lin− cells [1]; *p<0.05, n=3) | 18s RNA -Fold increase (Lin− cells [1]; control gene, n=3) [Fold] | Six2 -Fold increase (Lin− cells [1]; n=3) [Fold] | increase in EYFP+ cells (cell conversion) vs vehicle [2] [fold] | EYFP+ cells after the 3rd stage ([2]; flow cytometry, vehicle group 6.3%) [%] | histone H3 and H4 acetylation on promoters of renal genes [3] | cell death (Lin− cells [4]) | proportion of expressed genes altered ([5]; 340 expressed genes in a lymphoid cell line, Van Lint et al., 1996) [%] | proportion of genes tested altered ([5]; multiple cell lines, literature) | differentiation of insulin-producing cells (bone marrow stem cells) | IC50 of inhibition of HDAC activity (HDAC) | reversibility of inhibition of HDAC activity (HDAC; in cell cultures and in vivo)
COc1cccc([C@@H](C)NCCCc2ccccc2)c1 [NPS R-467] | increases | – | – | – | – | – | – | – | – | – | – | – | – | – | – | – | – | –
CC(/C=C/C(=O)NO)=C\[C@@H](C)C(=O)c1ccc(N(C)C)cc1 [TSA, trichostatin A] | – | 16.5* Fold | 4.39* Fold | 5.39* Fold | 8.29* Fold | 14.95* Fold | 3.28* Fold | −0.06 | 1.3 | 6 | 37.9 | increased histone H3 and H4 acetylation | no increase in cell death | 2 | 2-10% | led to differentiation of insulin-producing cells | nanomolar range | reversible
